Data published in patent US20180305334A1, “COMPOUNDS, COMPOSITIONS AND METHODS OF USE AGAINST STRESS GRANULES” (Aquinnah Pharmaceuticals, Inc., priority 2015, published 2018).

Assays:
Type in all cases: cell-based
[1] = test system: Embryonic mouse hippocampal neurons transduced with AAV1 EGFP, WT TDP-43 EGFP, A315T TDP-43 EGFP, or Q331K TDP-43 EGFP; assay: Neuroprotection assay; conditions: average rescue total dendrite length; neurons treated DIV7, 9, 11 at 10 times the IC50 value; fixed DIV12
Procedure: CMF dissection buffer: 1× Hank's balanced salt solution (Ca—/Mg, 500 mL) and 10 mM HEPES, pH 7.25-7.3 (1M stock, 5 mL)
Plating media: MEM (Earle salts+/Glutamine, 95 mL), FBS (to 2.5%, 2.5 mL), Pen/Strep (lx, 1 mL), glutamine (lx, 1 mL), and D-glucose (0.6% w/v, 0.6 g)
Feeding media: neurobasal media (96 mL), B27 supplement (2 mL), Pen/Strep (1 mL), and glutamine (1 mL).
Embryonic mouse hippocampal neurons were cultured according to Kaech, S. and Banker, G. (2006) Nat Protoc 1:2406-2415 and dissected at PO from CD1 mice. Once all the hippocampi were removed, they were placed in a 15 mL conical Falcon tube on ice and brought to a final volume of 4.5 mL with CMF dissection buffer. 0.5 mL of a 2.5% trypsin-EDTA solution was then added, and the mixture was incubated at 37° C. for 15 min. The trypsin solution was gently removed, leaving the tissue at the bottom of the Falcon tube. 5 mL CMF dissection buffer was then added, and after gentle mixing, the tissue was allowed to sediment. This procedure was repeated three times. The hippocampi were then dissociated by adding 1.8 mL platting media and repeatedly pipetting in a glass Pasteur pipette; the dissociation process was repeated 5-10 times. The cells were then passed through a 70 um cell strainer into a 50 mL conical tube to remove clumps and debris, and the neurons were plated on glass coverslips coated with poly-D-lysine/laminin. On DIV 1 neurons were transduced with AAV1 EGFP, WT TDP-43 EGFP, A315T TDP-43 EGFP, or Q331K TDP-43 EGFP. […] Neurons were traced and analyzed using NeuronJ.
Results of the neuroprotection assay for exemplary compounds of the invention are summarized in Table 2, wherein A represents an average rescue total dendrite length of >150%; B represents an average rescue total dendrite length of 100-149%; C represents an average rescue total dendrite length of 50-99%; D represents an average rescue total dendrite length of 0-49%; E represents an average rescue total dendrite length of <0%; and ND signifies that the average rescue total dendrite length was not determined.

[2] = test system: TDP-43 inclusions in PC12 cells stably expressing wild type (WT) TDP-43-GFP; assay: Dose response assay for TDP-43 inhibition; conditions: Rattus norvegicus, PC-12, inhibition of TDP-43 inclusions, stressed with 15 μM, 12-point dose response
Procedure: Exemplary compounds of the invention were evaluated for efficacy in inhibiting TDP-43 inclusions using a dose response assay. Briefly, PC12 cells stably expressing wild type (WT) TDP-43-GFP were stressed with 15 μM to induce TDP-43 inclusions. The cells were then treated with exemplary compounds of the invention and the inhibitory effect on TDP-43 inclusions was observed using fluorescent microscopy. The ratio of cells with TDP-43 inclusions was calculated based on the total number of cells with detectable GFP expression. A 12-point dose response curve was generated, and the IC50 for each compound tested was determined.

[3] = test system: TDP-43 aggregation in PC12 cells stably expressing TDP-43^Q331K::eGFP; assay: In vitro efficacy assay, TDP-43 aggregation concentration-response; conditions: Rattus norvegicus, PC-12, inhibition of TDP-43 aggregation; PC12 TDP-43^Q331K::eGFP, 1 hour pre-treatment, 15 μM sodium arsenite for 23 hours; 10-point dose response
Procedure, shortened: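 PC12 cells stably expressing TDP-43^Q331K::eGFP pre-treated with compound for 1 h, then stressed with 15 μM sodium arsenite for 23 h. Fluorescence microscopy scored the fraction of GFP-positive cells carrying TDP-43 aggregates across compound concentrations.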

Structure (SMILES) | Average Additive Dendrite Length (%) [1] | IC50 [2] [nM] | IC50 [3] [nM]
COc1ccccc1OCC(=O)NC1CCCN(c2nc3ccccc3s2)C1 (stereo not shown) [Compound 102, N-(1-(benzo[d]thiazol-2-yl)piperidin-3-yl)-2-(2-methoxyphenoxy)acetamide] | B (B represents an average rescue total dendrite length of 100-149%) | 251 to 500 | –
CCN(CC1CCCN(CCc2cccc(OC)c2)C1)C(=O)c1cc2ccccc2[nH]1 (stereo not shown) [Compound 101, N-ethyl-N-((1-(3-methoxyphenethyl)piperidin-3-yl)methyl)-1H-indole-2-carboxamide] | C (C represents an average rescue total dendrite length of 50-99%) | 101 to 250 | < 1500
COc1cc(NC(=O)CCC2CCCN(Cc3ccc(F)c(OC)c3)C2)cc(OC)c1 (stereo not shown) [Compound 100, N-(3,5-dimethoxyphenyl)-3-(1-(4-fluoro-3-methoxybenzyl)-piperidin-3-yl)propanamide] | E (E represents an average rescue total dendrite length of <0%) | 101 to 250 | –
